Measurements published in patent US7488716B2 (priority 2001, dated 2009).
Where no end group is shown, it is not given here.

Key:
GLP-1 receptor [1] = biological target: T1, GLP-1 receptor (Rattus norvegicus, UniProt P32301); assay: Competitive binding of peptide to the GLP-1 receptor in RINm5F cell plasma membranes (125I GLP-1); settings: read-out: GLP1 RIN IC50
T1 construct: endogenous in cells; host or cells: RINm5F cells
T1 sequence (P32301 22-463): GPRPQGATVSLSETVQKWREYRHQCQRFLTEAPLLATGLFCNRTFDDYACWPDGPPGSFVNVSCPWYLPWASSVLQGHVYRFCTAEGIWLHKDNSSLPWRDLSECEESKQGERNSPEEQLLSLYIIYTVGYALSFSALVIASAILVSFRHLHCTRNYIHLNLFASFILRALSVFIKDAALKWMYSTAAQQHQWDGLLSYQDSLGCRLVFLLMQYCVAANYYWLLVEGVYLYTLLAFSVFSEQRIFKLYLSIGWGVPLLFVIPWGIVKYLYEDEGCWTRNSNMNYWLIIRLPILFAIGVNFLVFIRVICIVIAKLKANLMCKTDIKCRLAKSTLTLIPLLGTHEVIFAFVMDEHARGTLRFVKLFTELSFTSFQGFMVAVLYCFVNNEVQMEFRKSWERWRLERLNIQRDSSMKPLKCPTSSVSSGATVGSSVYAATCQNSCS

rat hepatocytes = assay: Glucose release from rat hepatocytes (inhibition of glucagon mediated glucose production); format: cell-based; settings: 1 nM glucagon, 100 nM peptide, 3 trials
Protocol: Hepatocytes were isolated according to a modified procedure of Berry and Friend (J. Cell. Biol. 43:506, 1969). A fed male Wistar rat was anesthetized with sodium pentobarbital (55 mg/kg, i.p.). The rat was placed on its back on the tray of the liver perfusion apparatus (37° C.), and its limbs were secured with laboratory tape. The ventrical surface was cleaned with 70% alcohol, and the abdominal cavity was opened with scissors to expose the liver, portal vein, hepatic artery and the posterior vena cava. Ligatures were placed loosely around the three vessels. A cannula was inserted into the portal vein and was secured with the ligature. […] An aliquot of cells was diluted with buffer, stained with 0.4% Trypan Blue and counted. […]
Rat hepatocytes were added into a flat bottom 96 well plate (2×10^5/100 μl/well) and pre-incubated in a 37° C. incubator with constant shaking and under 95% O2/5% CO2 flow for 10 minutes. […] The resulting supernatant was analyzed for glucose with hexokinase and glucose-6-phosphate dehydrogenase (Methods of Enzymatic Analysis, H. U. Bermeyer, Ed., Academic Press) and the A340 read on a fMAX plate reader (Molecular Devices, Sunnyvale, Calif.).
Glucose output was calculated after subtracting the amount of glucose produced in the unstimulated hepatocytes from each data point and the percent inhibition was calculated.

[2] = tested on: glucagon-mediated elevation in blood glucose; assay: Glucagon-stimulated glucose production in fed Wistar rats; format: in vivo, rat; settings: iv, 0.3 nmol/kg glucagon plus 1 nmol/kg peptide
Protocol: The anesthesia was withdrawn and the conscious rats were tail-bled again after 10, 20 and 30 min.
Glucose inhibition was determined by analyzing the area under the glucose curve after subtracting the basal glucose level (dAUC).

GLP-1 receptor [3] = biological target: T1, GLP-1 receptor; assay: Peptide signaling through GLP-1 receptor, cAMP scintillation proximity assay in RINm5F cells; format: cell-based
In short: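 RINm5F cells were exposed to peptide, with BSA omitted from the incubation buffer for fatty-acid-conjugated peptides, then lysed. Lysate cAMP (pmol) was measured by scintillation proximity assay, and EC50 was obtained by nonlinear regression of cAMP versus peptide concentration.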

glucagon receptor = biological target: T2, glucagon receptor (Rattus norvegicus, UniProt P30082); assay: Competitive binding of peptide to the glucagon receptor in rat liver plasma membranes (125I glucagon)
T2 construct: glucagon receptor present in the plasma membranes isolated from rat liver; from tissue; host or cells: rat liver plasma membranes

perfused rat islets = assay: Insulin secretion by perfused rat islets; format: cell-based; settings: 50 nM peptide, 8 mM glucose
Protocol: Sprague Dawley rats (275-320 g) were used as the source of donor islets. Briefly, the pancreas was filled with 10 ml of cold reconstituted Liberase RI (Boehringer Manheim), harvested and incubated with additional 5 ml enzyme solution in water bath for 30 minutes. Tissue suspension was washed twice with cold 10% FBS/Hanks buffer (Gibco), resuspended in 8 ml 25% ficoll (Sigma) and then layered with 5 ml each of 23%, 20% and 11% ficoll. The islets in the 20% layer after centrifugation were removed, washed twice with cold 10% FBS/Hank buffer and resuspended in 10% FBS/RPMI 1640 media (Sigma).
Insulin secretion of perfused rat islets mediated by some peptides of the invention was measured as follows. The bi-phasic responses of insulin release stimulated by these polypeptides were tested by islet perfusion. Fifty islets were loaded in the perifusion chamber and perifused with HEPES-KRB containing 3 mM glucose at 37° C. After 60 min, islets were exposed to buffer containing 8 mM glucose with or without peptide (50 nM) and perifused for another 30 min. Fractions of perifusate were collected at 1 or 5 minute intervals for insulin determination. Insulin was measured using an ELISA kit (Alpco Diagnostics, Windham, N.H.).

T2 sequence (P30082 27-485): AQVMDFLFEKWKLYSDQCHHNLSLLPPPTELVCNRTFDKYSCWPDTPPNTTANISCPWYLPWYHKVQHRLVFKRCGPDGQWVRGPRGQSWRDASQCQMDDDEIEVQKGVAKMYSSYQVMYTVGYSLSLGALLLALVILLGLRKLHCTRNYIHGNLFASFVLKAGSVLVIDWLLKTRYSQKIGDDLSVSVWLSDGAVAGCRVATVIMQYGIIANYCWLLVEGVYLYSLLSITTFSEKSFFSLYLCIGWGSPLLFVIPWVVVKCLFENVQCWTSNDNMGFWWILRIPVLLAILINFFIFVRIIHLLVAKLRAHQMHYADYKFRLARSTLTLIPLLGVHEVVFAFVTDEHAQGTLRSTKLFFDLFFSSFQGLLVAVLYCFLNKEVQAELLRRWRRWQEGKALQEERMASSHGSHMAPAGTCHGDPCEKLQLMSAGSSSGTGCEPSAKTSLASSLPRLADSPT

## HSQGTFTSDYAKYLDARRAKEFIAWLVKGR-NH2 [G27]
GLP-1 receptor [1]
  IC50: 2.2 nM
Rat hepatocytes
  Inhibition of glucagon mediated glucose production: 47%
[2]
  Inhibition of glucagon-mediated elevation in blood glucose (dAUC): 63%
GLP-1 receptor [3]; EC50 of native GLP-1 (7-36) divided by EC50 of polypeptide x 100, cAMP in RINm5F cells
  GLP1 Relative Potency: 13.4%
GLP-1 receptor [3]; RIN-m5F, read-out: % GLP1 max
  Emax: 98.1%
Glucagon receptor
  IC50: 69.3 nM
Perfused rat islets
  Increase of insulin secretion from perfused islets: approximately 2 fold
